Measured values reported in PubChem BioAssay (NCI).
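Briefly, cells in 96-well plates were exposed to five compound concentrations for 48 h, and endpoints were estimated by linear interpolation. Definition used: TGI = concentration required for complete inhibition of growth.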

Key:
Experiment in all cases: NCI-60 cell line screen, 48 h
[1] = test system: 786-0 renal
[2] = test system: A549 NSCLC
[3] = test system: ACHN renal
[4] = test system: BT-549 breast
[5] = test system: CAKI-1 renal
[6] = test system: CCRF-CEM leukemia
[7] = test system: COLO 205 colon
[8] = test system: DU-145 prostate
[9] = test system: EKVX NSCLC
[10] = test system: HCC-2998 colon
[11] = test system: HCT-116 colon
[12] = test system: HCT-15 colon
[13] = test system: HL-60(TB) leukemia
[14] = test system: HOP-62 NSCLC
[15] = test system: HOP-92 NSCLC
[16] = test system: HT29 colon
[17] = test system: IGROV1 ovarian
[18] = test system: K-562 leukemia
[19] = test system: KM12 colon
[20] = test system: LOX IMVI melanoma
[21] = test system: M14 melanoma
[22] = test system: MALME-3M melanoma
[23] = test system: MCF7 breast
[24] = test system: MDA-MB-435
[25] = test system: MDA-N
[26] = test system: MOLT-4 leukemia
[27] = test system: NCI-H226 lung
[28] = test system: NCI-H23 lung
[29] = test system: NCI-H460 lung
[30] = test system: NCI-H522 lung
[31] = test system: NCI/ADR-RES ovarian
[32] = test system: OVCAR-3 ovarian
[33] = test system: OVCAR-4 ovarian
[34] = test system: OVCAR-5 ovarian
[35] = test system: OVCAR-8 ovarian
[36] = test system: PC-3 prostate
[37] = test system: RPMI-8226 leukemia
[38] = test system: RXF 393 renal
[39] = test system: SF-268 CNS
[40] = test system: SF-295 CNS
[41] = test system: SF-539 CNS
[42] = test system: SK-MEL-2 melanoma
[43] = test system: SK-MEL-28 melanoma
[44] = test system: SK-MEL-5 melanoma
[45] = test system: SK-OV-3 ovarian
[46] = test system: SN12C renal
[47] = test system: SNB-19 CNS
[48] = test system: SR leukemia
[49] = test system: SW-620 colon
[50] = test system: T-47D breast
[51] = test system: TK-10 renal
[52] = test system: U251 CNS
[53] = test system: UACC-257 melanoma
[54] = test system: UACC-62 melanoma
[55] = test system: UO-31 renal
[56] = test system: A498 renal
[57] = test system: MDA-MB-231 breast
[58] = test system: SNB-75 CNS

For `C#Cc1cc(-c2nc3ccccc3s2)ccc1N`, the TGI [1] was > 100 µM, the TGI [2] was 42.8 µM and the TGI [3] was 70.3 µM. For the same compound, the TGI [4] was 94.9 µM, the TGI [5] was 50.4 µM and the TGI [6] was 56 µM. It also gave a TGI [7] of 32.9 µM, a TGI [8] of 39.5 µM and a TGI [9] of 65 µM. It also gave a TGI [10] of 32.6 µM, a TGI [11] of 32.9 µM and a TGI [12] of 42.8 µM. The TGI [13] was > 100 µM, the TGI [14] was > 100 µM and the TGI [15] was 44.7 µM. The TGI [16] was 33 µM, the TGI [17] was 53.8 µM and the TGI [18] was 89 µM. For the same compound, the TGI [19] was 46.9 µM, the TGI [20] was 27.8 µM and the TGI [21] was 34.5 µM. For the same compound, the TGI [22] was 63.4 µM, the TGI [23] was 31.4 µM and the TGI [24] was 40.4 µM. The TGI [25] was 97.6 µM, the TGI [26] was 91.1 µM and the TGI [27] was 47.8 µM. It also gave a TGI [28] of 55.9 µM, a TGI [29] of 74.5 µM and a TGI [30] of 32.3 µM. For the same compound, the TGI [31] was 86.5 µM, the TGI [32] was 42.4 µM and the TGI [33] was 47.1 µM. The TGI [34] was > 100 µM, the TGI [35] was > 100 µM and the TGI [36] was 94.1 µM. For the same compound, the TGI [37] was 76.8 µM, the TGI [38] was 93.9 µM and the TGI [39] was > 100 µM. For the same compound, the TGI [40] was 54.8 µM, the TGI [41] was 81.3 µM and the TGI [42] was 35.9 µM. For the same compound, the TGI [43] was 35.6 µM, the TGI [44] was 68.6 µM and the TGI [45] was 69.7 µM. The TGI [46] was 79 µM, the TGI [47] was 66.9 µM and the TGI [48] was 92.4 µM. For the same compound, the TGI [49] was 81.8 µM, the TGI [50] was 45.6 µM and the TGI [51] was 36.8 µM. The TGI [52] was 63.6 µM, the TGI [53] was 27.9 µM and the TGI [54] was 36.6 µM. For the same compound, the TGI [55] was 56.3 µM.

Compound `CC1(C)Cc2c(cnn2-c2ccc(C(F)(F)F)cc2)-c2nc(-c3ccc(O)cc3)[nH]c21` has a TGI [1] of 12.6 µM, a TGI [56] of 43.7 µM and a TGI [2] of 38.6 µM. It also gave a TGI [3] of 28.5 µM, a TGI [4] of 28.5 µM and a TGI [5] of 34.6 µM. For the same compound, the TGI [6] was 11.2 µM, the TGI [7] was 35.6 µM and the TGI [8] was 31.6 µM. For the same compound, the TGI [9] was 42.9 µM, the TGI [10] was 30 µM and the TGI [11] was 28.4 µM. For the same compound, the TGI [12] was 25.8 µM, the TGI [13] was 23 µM and the TGI [14] was 39.6 µM. The TGI [15] was 45.1 µM, the TGI [16] was 17.4 µM and the TGI [17] was 40.1 µM. For the same compound, the TGI [18] was 70.2 µM, the TGI [19] was 33.9 µM and the TGI [20] was 43 µM. For the same compound, the TGI [21] was 33.9 µM, the TGI [22] was 29.7 µM and the TGI [23] was 30.7 µM. The TGI [57] was 40.7 µM, the TGI [24] was 37.8 µM and the TGI [25] was 38.6 µM. It also gave a TGI [26] of 22.7 µM, a TGI [27] of 52.3 µM and a TGI [28] of 41.2 µM. The TGI [29] was 33.2 µM, the TGI [30] was 26.2 µM and the TGI [31] was 45 µM. It also gave a TGI [32] of 29.4 µM, a TGI [33] of 29.2 µM and a TGI [34] of 39.1 µM. It also gave a TGI [35] of 58.2 µM, a TGI [36] of 33.3 µM and a TGI [38] of 15.6 µM. For the same compound, the TGI [39] was 28.5 µM, the TGI [40] was 38 µM and the TGI [43] was 30.9 µM. It also gave a TGI [44] of 34 µM, a TGI [45] of 45.3 µM and a TGI [46] of 31.8 µM. The TGI [47] was 86.1 µM, the TGI [58] was 21 µM and the TGI [48] was 28.7 µM. For the same compound, the TGI [49] was 51.5 µM, the TGI [50] was 38.5 µM and the TGI [51] was 35.3 µM. It also gave a TGI [52] of 25.2 µM, a TGI [53] of 34.4 µM and a TGI [54] of 31 µM. The TGI [55] was 36.2 µM.
